Each block holds one molecule with its values, some of them ahead of it.
How the values were obtained:
[1] = Antitumor activity against mouse RM1 cells xenografted in C57BL/6 mouse assessed as tumor growth inhibition at 9 mg/kg, ip administered every other day for 3 times and measured on day 7 relative to control; type: functional; conditions: RM1, 168 h, time 7 day, read-out: TGI
[2] = tested on: A549; assay: Antiproliferative activity against human A549 cells assessed as inhibition of cell viability measured after 72 hrs by CCK-8 assay; type: functional, cell-based; conditions: A549, 72 h
[3] = tested on: HT-29; assay: Antiproliferative activity against human HT-29 cells assessed as reduction in cell viability incubated for 72 hrs by MTT assay; type: functional, cell-based; conditions: HT-29, 72 h
[4] = tested on: HepG2; assay: Antiproliferative activity against human HepG2 cells assessed as reduction in cell viability incubated for 72 hrs by MTT assay; type: functional, cell-based; conditions: HepG2, 72 h
[5] = Cytotoxicity against Sf9 cells assessed as inhibition of cell growth measured after 24 hrs by MTT assay; type: toxicity, cell-based; conditions: Spodoptera frugiperda
[6] = tested on: HL-60; assay: Antiproliferative activity against human HL-60 cells assessed as reduction in cell viability incubated for 48 hrs by MTT assay; type: functional, cell-based; conditions: HL-60, 48 h
[7] = tested on: PC-3M; assay: Cytotoxicity against human PC-3M cells assessed as reduction in cell viability measured after 72 hrs by MTS assay; type: functional, cell-based
[8] = tested on: A549; assay: Antitumor activity against human A549 cells assessed as reduction in cell viability incubated for 72 hrs by CCK-8 assay; type: functional, cell-based; conditions: A549, 72 h
[9] = Anticancer activity against human KBV cells assessed as reduction in cell growth measured after 72 hrs by SRB assay; type: functional, cell-based

Structure (SMILES): CC[C@@]1(OC(=O)CCC(=O)O[C@@H]2O[C@@H](C)[C@H](OC(C)=O)[C@@H](OC(C)=O)[C@H]2OC(C)=O)C(=O)OCc2c1cc1n(c2=O)Cc2cc3cc4c(cc3nc2-1)OCO4
inhibition in vivo at 9 mg/kg [1]: 44.9%

IC50 [2]: 630 nM
Structure (SMILES): CC[C@]1(O)c2cc3n(c(=O)c2CO[C@H]1F)Cc1cc2c4c(ccc2nc1-3)OCN(C1CC1)C4

IC50 [2]: 630 nM
Structure (SMILES): CC[C@]1(O)c2cc3n(c(=O)c2CO[C@H]1F)Cc1cc2c4c(ccc2nc1-3)OCN(C1CCCCC1)C4

IC50 [3]: 45.1 nM
IC50 [4]: 165 nM
Structure (SMILES): CCCCCCCCCCCCCCCCOC(=O)[C@@]1(C)CCc2c(C)c(OC(=O)CCC(=O)O[C@]3(CC)C(=O)OCc4c3cc3n(c4=O)Cc4c-3nc3ccc(O)cc3c4CC)c(C)c(C)c2O1

Structure (SMILES): CCCCCNC(=O)c1c2c(nc3ccccc13)-c1cc3c(c(=O)n1C2)COC(=O)[C@]3(O)CC
IC50 at 24 h [5]: 2010 nM

Structure (SMILES): CC[C@@]1(O)C(=O)OCc2c1cc1n(c2=O)Cc2c-1nc1ccccc1c2C(=O)NCc1ccccc1
IC50 at 24 h [5]: 2010 nM

IC50 [6]: 17700 nM
Structure (SMILES): CC[C@@]1(OCc2cn([C@@H]3c4cc5c(cc4[C@@H](c4cc(OC)c(O)c(OC)c4)[C@H]4C(=O)OC[C@@H]43)OCO5)nn2)C(=O)OCc2c1cc1n(c2=O)Cc2cc3ccccc3nc2-1

IC50 [2]: 630 nM
Structure (SMILES): CC[C@]1(O)c2cc3n(c(=O)c2CO[C@H]1F)Cc1cc2c4c(ccc2nc1-3)OCN(C1CCCC1)C4

IC50 [8]: 18 nM
Structure (SMILES): CC[C@@]1(OC(=O)[C@@H](Cc2ccccc2)NC(=O)OC(C)(C)C)C(=O)OCc2c1cc1n(c2=O)Cc2cc3ccccc3nc2-1
IC50 [7]: 88 nM

Structure (SMILES): CC[C@@]1(O)C(=O)OCc2c1cc1n(c2=O)Cc2c-1nc1ccccc1c2CN1CCN(C(=S)Nc2ccccc2OC)CC1
IC50 [9]: 514000 nM

IC50 [2]: 630 nM
Structure (SMILES): CC[C@]1(O)c2cc3n(c(=O)c2CO[C@H]1F)Cc1cc2c4c(ccc2nc1-3)OCN(C1CCC1)C4

Structure (SMILES): CC[C@@]1(O)C(=O)OCc2c1cc1n(c2=O)Cc2c-1nc1ccccc1c2CN1CCN(C(=S)Nc2cccc3ccccc23)CC1
IC50 [9]: 275000 nM

Structure (SMILES): CC[C@@]1(O)C(=O)OCc2c1cc1n(c2=O)Cc2c-1nc1ccccc1c2C(=O)NCc1ccc(F)cc1
IC50 at 24 h [5]: 2010 nM
